Measurements reported in patent US8093275B2, “Oxazolone and pyrrolidinone-substituted pryidine amides as P2X3 and P2X2/3 antagonists” (Roche Palo Alto LLC, priority 2009, dated 2012).

Legend:
human P2X2/3 receptor = molecular target: T1, human P2X2/3 receptor (Homo sapiens, UniProt P56373+Q9UBL9); test: P2X2/3 FLIPR (Fluorometric Imaging Plate Reader) assay; assay type: cell-based; details: CHO-K1 cells transfected with human P2X2/3; agonist α,β-meATP 5 μM; FLIPR calcium fluorescence; read-out: pKi P2X2/3 (converted)
T1 construct: expressed in transfected cells; host or cells: CHO-K1
T1 sequence (Q9UBL9 1-471): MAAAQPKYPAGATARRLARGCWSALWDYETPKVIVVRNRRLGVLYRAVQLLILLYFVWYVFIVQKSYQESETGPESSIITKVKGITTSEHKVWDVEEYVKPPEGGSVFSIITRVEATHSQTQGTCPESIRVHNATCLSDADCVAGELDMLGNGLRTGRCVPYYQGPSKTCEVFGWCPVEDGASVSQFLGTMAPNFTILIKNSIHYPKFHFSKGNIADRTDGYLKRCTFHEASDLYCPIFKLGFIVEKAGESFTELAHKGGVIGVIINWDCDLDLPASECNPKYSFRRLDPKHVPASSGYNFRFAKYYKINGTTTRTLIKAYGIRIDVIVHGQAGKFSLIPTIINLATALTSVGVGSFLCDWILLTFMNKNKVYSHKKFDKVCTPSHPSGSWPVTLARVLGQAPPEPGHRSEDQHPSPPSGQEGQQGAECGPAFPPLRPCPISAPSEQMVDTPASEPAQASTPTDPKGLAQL
T1 sequence (P56373 1-397): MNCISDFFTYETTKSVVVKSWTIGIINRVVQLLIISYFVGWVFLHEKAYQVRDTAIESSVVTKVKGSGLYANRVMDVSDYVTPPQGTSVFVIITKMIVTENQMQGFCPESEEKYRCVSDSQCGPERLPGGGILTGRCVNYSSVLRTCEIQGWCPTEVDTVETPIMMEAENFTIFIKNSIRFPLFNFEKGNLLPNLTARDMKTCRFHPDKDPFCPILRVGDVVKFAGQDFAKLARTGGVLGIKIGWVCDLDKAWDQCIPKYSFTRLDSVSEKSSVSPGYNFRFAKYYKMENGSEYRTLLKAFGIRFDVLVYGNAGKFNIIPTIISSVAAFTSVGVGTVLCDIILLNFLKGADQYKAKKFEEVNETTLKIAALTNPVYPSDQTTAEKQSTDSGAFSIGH
Description: (§1) CHO-K1 cells were transfected with cloned rat P2X3 or human P2X2/3 receptor subunits and passaged in flasks. 18-24 hours before the FLIPR experiment, cells were released from their flasks, centrifuged, and resuspended in nutrient medium at 2.5×10^5 cells/ml. The cells were aliquoted into black-walled 96-well plates at a density of 50,000 cells/well and incubated overnight in 5% CO2 at 37° C. On the day of the experiment, cells were washed in FLIPR buffer (calcium- and magnesium-free Hank's balanced salt solution, 10 mM HEPES, 2 mM CaCl2, 2.5 mM probenecid; FB). Each well received 100 μl FB and 100 μl of the fluorescent dye Fluo-3 AM [2 μM final conc.]. After a 1 hour dye loading incubation at 37° C., the cells were washed 4 times with FB, and a final 75 μl/well FB was left in each well.
(§2) Test compounds (dissolved in DMSO at 10 mM and serially diluted with FB) or vehicle were added to each well (25 μl of a 4× solution) and allowed to equilibrate for 20 minutes at room temperature. The plates were then placed in the FLIPR and a baseline fluorescence measurement (excitation at 488 nm and emission at 510-570 nm) was obtained for 10 seconds before a 100 μl/well agonist or vehicle addition. The agonist was a 2× solution of α,β-meATP producing a final concentration of 1 μM (P2X3) or 5 μM (P2X2/3). Fluorescence was measured for an additional 2 minutes at 1 second intervals after agonist addition. A final addition of ionomycin (5 μM, final concentration) was made to each well of the FLIPR test plate to establish cell viability and maximum fluorescence of dye-bound cytosolic calcium. Peak fluorescence in response to the addition of α,β-meATP (in the absence and presence of test compounds) was measured and inhibition curves generated using nonlinear regression. PPADS, a standard P2X antagonist, was used as a positive control.

rat P2X3 receptor = molecular target: T2, rat P2X3 receptor (Rattus norvegicus, UniProt P49654); test: P2X3 FLIPR (Fluorometric Imaging Plate Reader) assay; assay type: cell-based; details: CHO-K1 cells transfected with rat P2X3; agonist α,β-meATP 1 μM; FLIPR calcium fluorescence; read-out: pKi P2X3 (converted)
T2 construct: expressed in transfected cells; host or cells: CHO-K1
T2 sequence (P49654 1-397): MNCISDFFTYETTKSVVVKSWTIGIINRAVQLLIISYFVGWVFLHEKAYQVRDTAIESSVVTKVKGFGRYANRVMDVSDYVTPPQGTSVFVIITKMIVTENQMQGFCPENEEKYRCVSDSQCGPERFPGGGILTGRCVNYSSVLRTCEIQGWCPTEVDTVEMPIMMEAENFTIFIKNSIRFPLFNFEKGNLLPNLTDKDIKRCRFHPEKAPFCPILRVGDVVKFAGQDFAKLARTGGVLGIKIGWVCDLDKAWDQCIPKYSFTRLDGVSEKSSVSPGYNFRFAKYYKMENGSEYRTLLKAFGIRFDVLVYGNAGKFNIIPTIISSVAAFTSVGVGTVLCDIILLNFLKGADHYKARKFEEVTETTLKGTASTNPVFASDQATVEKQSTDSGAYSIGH
Description: as §1, §2

SMILES	Ki (human P2X2/3 receptor) [µM]	Ki (rat P2X3 receptor) [µM]
Cc1ccc(-c2cc(C(=O)NCc3cnc(C)cn3)cc(N3C(=O)CCC3C)c2)nc1 (stereo not drawn) [Compound 28, 3-(2-Methyl-5-oxo-pyrrolidin-1-yl)-N-(5-methyl-pyrazin-2-ylmethyl)-5-(5-methyl-pyridin-2-yl)-benzamide]	2.04	0.0302
Cc1ccc(-c2cc(C(=O)NCc3cnc(C)cn3)cc(N3C(=O)OCC34CC4)c2)nc1 [Compound 29, N-(5-Methyl-pyrazin-2-ylmethyl)-3-(5-methyl-pyridin-2-yl)-5-(5-oxo-6-oxa-4-aza-spiro[2.4]hept-4-yl)-benzamide]	0.129	0.00437
Cc1ccc(-c2cc(C(=O)NCc3cncnc3)cc(-n3c(=O)oc4ccccc43)c2)nc1 [Compound 12, 3-(5-Methyl-pyridin-2-yl)-5-(2-oxo-benzooxazol-3-yl)-N-pyrimidin-5-ylmethyl-benzamide]	0.141	0.00603
COC[C@@H](C)NC(=O)c1cc(-c2ccc(C)cn2)cc(N2C(=O)OC[C@H]2C(C)C)c1 [Compound 7, 3-((R)-4-Isopropyl-2-oxo-oxazolidin-3-yl)-N-((R)-2-methoxy-1-methyl-ethyl)-5-(5-methyl-pyridin-2-yl)-benzamide]	0.562	0.00525
Cc1ccc(-c2cc(C(=O)NC(C)c3cnccn3)cc(N3C(=O)Cc4ccccc43)c2)cc1 (stereo not drawn) [Compound 54, 4′-Methyl-5-(2-oxo-2,3-dihydro-indol-1-yl)-biphenyl-3-carboxylic acid (1-pyrazin-2-yl-ethyl)-amide]	0.112	0.02
Cc1ccc(-c2cc(C(=O)NC3CC3)cc(N3C(=O)OC[C@H]3C(C)C)c2)nc1 [Compound 8, N-Cyclopropyl-3-((R)-4-isopropyl-2-oxo-oxazolidin-3-yl)-5-(5-methyl-pyridin-2-yl)-benzamide]	0.132	0.00269
Cc1ccc(-c2cc(C(=O)NC(C)c3cnccn3)cc(N3C(=O)OC[C@@H]3C(C)C)c2)cc1 (stereo partly drawn) [Compound 45, 5-((S)-4-Isopropyl-2-oxo-oxazolidin-3-yl)-4′-methyl-biphenyl-3-carboxylic acid (1-pyrazin-2-yl-ethyl)-amide]	7.59	0.263
Cc1ccc(-c2cc(C(=O)NC(C)c3cnccn3)cc(N3C(=O)OC[C@H]3C(C)C)c2)nc1 (stereo partly drawn) [Compound 10, 3-((R)-4-Isopropyl-2-oxo-oxazolidin-3-yl)-5-(5-methyl-pyridin-2-yl)-N-(1-pyrazin-2-yl-ethyl)-benzamide]	0.0263	0.00355
Cc1ccc(-c2cc(C(=O)NC(C)c3cnccn3)cc(-n3c(=O)oc4ccccc43)c2)cc1 (stereo not drawn) [Compound 50, 4′-Methyl-5-(2-oxo-benzooxazol-3-yl)-biphenyl-3-carboxylic acid (1-pyrazin-2-yl-ethyl)-amide]	0.0263	0.0123
Cc1ccc(-c2cc(C(=O)NC(C)c3cnccn3)cc(N3C(=O)OC[C@H]3C(C)C)c2)cc1 (stereo partly drawn) [Compound 39, 5-((R)-4-Isopropyl-2-oxo-oxazolidin-3-yl)-4′-methyl-biphenyl-3-carboxylic acid (1-pyrazin-2-yl-ethyl)-amide]	0.038	0.00933

The next lines start with the values.

Ki (human P2X2/3 receptor) [µM]	Ki (rat P2X3 receptor) [µM]	SMILES
4.9	0.0105	CCC1COC(=O)N1c1cc(C(=O)N[C@@H](C)CO)cc(-c2ccc(C)cn2)c1 (stereo partly drawn) [Compound 17, 3-(4-Ethyl-2-oxo-oxazolidin-3-yl)-N-((S)-2-hydroxy-1-methyl-ethyl)-5-(5-methyl-pyridin-2-yl)-benzamide]
0.038	0.0123	Cc1ccc(-c2cc(C(=O)NCc3cnc(C)cn3)cc(N3C(=O)OC[C@H]3C(C)C)c2)cc1 [Compound 40, 5-((R)-4-Isopropyl-2-oxo-oxazolidin-3-yl)-4′-methyl-biphenyl-3-carboxylic acid (5-methyl-pyrazin-2-ylmethyl)-amide]
0.0316	0.011	Cc1ccc(-c2cc(C(=O)NCc3cnc(C)cn3)cc(-n3c(=O)oc4ccccc43)c2)cc1 [Compound 51, 4′-Methyl-5-(2-oxo-benzooxazol-3-yl)-biphenyl-3-carboxylic acid (5-methyl-pyrazin-2-ylmethyl)-amide]
7.76	0.0389	Cc1ccc(-c2cc(C(=O)NC(C)c3cnccn3)cc(N3C(=O)CCC3C)c2)nc1 (stereo not drawn) [Compound 27, 3-(2-Methyl-5-oxo-pyrrolidin-1-yl)-5-(5-methyl-pyridin-2-yl)-N-(1-pyrazin-2-yl-ethyl)-benzamide]
0.0288	0.00794	Cc1ccc(-c2cc(C(=O)NCc3cnc(C)cn3)cc(-n3c(=O)oc4ccccc43)c2)nc1 [Compound 1, N-(5-Methyl-pyrazin-2-ylmethyl)-3-(5-methyl-pyridin-2-yl)-5-(2-oxo-benzooxazol-3-yl)-benzamide]
0.0891	0.00891	Cc1ccc(-c2cc(C(=O)NCc3cnc(C)cn3)cc(N3C(=O)Cc4ccccc43)c2)nc1 [Compound 5, N-(5-Methyl-pyrazin-2-ylmethyl)-3-(5-methyl-pyridin-2-yl)-5-(2-oxo-2,3-dihydro-indol-1-yl)-benzamide]
0.339	0.00759	CCC1COC(=O)N1c1cc(C(=O)NC(C)c2cnccn2)cc(-c2ccc(C)cn2)c1 (stereo not drawn) [Compound 18, 3-(4-Ethyl-2-oxo-oxazolidin-3-yl)-5-(5-methyl-pyridin-2-yl)-N-(1-pyrazin-2-yl-ethyl)-benzamide]
0.038	0.0132	Cc1ccc(-c2cc(C(=O)NCc3cnc(C)cn3)cc(N3C(=O)OC[C@H]3C(C)C)c2)c(F)c1 [Compound 48, 2′-Fluoro-5-((R)-4-isopropyl-2-oxo-oxazolidin-3-yl)-4′-methyl-biphenyl-3-carboxylic acid (5-methyl-pyrazin-2-ylmethyl)-amide]
0.0282	0.00309	Cc1ccc(-c2cc(C(=O)NC(C)c3cnccn3)cc(-n3c(=O)oc4ccccc43)c2)nc1 (stereo not drawn) [Compound 2, 3-(5-Methyl-pyridin-2-yl)-5-(2-oxo-benzooxazol-3-yl)-N-(1-pyrazin-2-yl-ethyl)-benzamide]
0.234	0.00331	Cc1ccc(-c2cc(C(=O)N[C@@H](C)CO)cc(-n3c(=O)oc4ccccc43)c2)nc1 [Compound 3, N-((S)-2-Hydroxy-l-methyl-ethyl)-3-(5-methyl-pyridin-2-yl)-5-(2-oxo-benzooxazol-3-yl)-benzamide]
0.0214	0.00776	Cc1ccc(-c2cc(C(=O)NCc3ccc(C)nn3)cc(-n3c(=O)oc4ccccc43)c2)nc1 [Compound 13, N-(6-Methyl-pyridazin-3-ylmethyl)-3-(5-methyl-pyridin-2-yl)-5-(2-oxo-benzooxazol-3-yl)-benzamide]
